ChEMBL document CHEMBL1124908, “Synthesis and antiviral activity of 3'-deoxy-3'-C-hydroxymethyl nucleosides” (J Med Chem, 1990)
In brackets after ≈: the same amount, converted by molar mass.

Columns and labels:
CV-1 = assay: Inhibitory concentration which is active against Varicella zoster virus (VZV) in CV-1 cells; assay type: functional, cell-based, Cercopithecidae; conditions: Chlorocebus aethiops
MRC5 = assay: Inhibitory concentration which is active against Varicella zoster virus (VZV) in MRC-5 cells; assay type: functional, cell-based; conditions: Homo sapiens
Human alphaherpesvirus 3 [1] = assay: Minimum inhibitory concentration which is active against Varicella zoster virus (VZV); value ranges from 0.0002-0.003 ug/mL; assay type: functional
Human alphaherpesvirus 1 = assay: Minimum inhibitory concentration which is active against herpes simplex virus type-1 (HSV-1); value ranges from 0.007-0.01 ug/mL; assay type: functional
Human alphaherpesvirus 3 [2] = assay: Anti-viral activity which is required for the inhibition of VZV (Varicella zoster virus ); assay type: functional, organism-based

Row | Structure (SMILES) | IC50 (CV-1) [ng/mL] | IC50 (MRC5) [ng/mL] | MIC (Human alphaherpesvirus 3 [1]) [ng/mL] | MIC (Human alphaherpesvirus 1) [ng/mL] | IC50 (Human alphaherpesvirus 3 [2]) [ng/mL]
1 | O=c1[nH]c(=O)n(C2O[C@H](CO)[C@H](CO)[C@H]2O)cc1/C=C/Br (stereo not given in full) | 4400 (≈ 12.1 µM) | 15300 (≈ 42.1 µM) | – | – | –
2 | O=c1[nH]c(=O)n([C@H]2C[C@H](O)[C@@H](CO)O2)cc1/C=C/Br [BRIVUDINE] | – | – | 0.2 (≈ 0.0006 µM) | 7 (≈ 0.021 µM) | 2.4 (≈ 0.0072 µM)
